# In the supplement of paper PMC12076712:
# Key:
# Assay in all cases: pIC50, kinobeads binding competition
# LATS2 = target: T1, LATS2 (UniProt Q9NRM7)
# T1 sequence (whole entry): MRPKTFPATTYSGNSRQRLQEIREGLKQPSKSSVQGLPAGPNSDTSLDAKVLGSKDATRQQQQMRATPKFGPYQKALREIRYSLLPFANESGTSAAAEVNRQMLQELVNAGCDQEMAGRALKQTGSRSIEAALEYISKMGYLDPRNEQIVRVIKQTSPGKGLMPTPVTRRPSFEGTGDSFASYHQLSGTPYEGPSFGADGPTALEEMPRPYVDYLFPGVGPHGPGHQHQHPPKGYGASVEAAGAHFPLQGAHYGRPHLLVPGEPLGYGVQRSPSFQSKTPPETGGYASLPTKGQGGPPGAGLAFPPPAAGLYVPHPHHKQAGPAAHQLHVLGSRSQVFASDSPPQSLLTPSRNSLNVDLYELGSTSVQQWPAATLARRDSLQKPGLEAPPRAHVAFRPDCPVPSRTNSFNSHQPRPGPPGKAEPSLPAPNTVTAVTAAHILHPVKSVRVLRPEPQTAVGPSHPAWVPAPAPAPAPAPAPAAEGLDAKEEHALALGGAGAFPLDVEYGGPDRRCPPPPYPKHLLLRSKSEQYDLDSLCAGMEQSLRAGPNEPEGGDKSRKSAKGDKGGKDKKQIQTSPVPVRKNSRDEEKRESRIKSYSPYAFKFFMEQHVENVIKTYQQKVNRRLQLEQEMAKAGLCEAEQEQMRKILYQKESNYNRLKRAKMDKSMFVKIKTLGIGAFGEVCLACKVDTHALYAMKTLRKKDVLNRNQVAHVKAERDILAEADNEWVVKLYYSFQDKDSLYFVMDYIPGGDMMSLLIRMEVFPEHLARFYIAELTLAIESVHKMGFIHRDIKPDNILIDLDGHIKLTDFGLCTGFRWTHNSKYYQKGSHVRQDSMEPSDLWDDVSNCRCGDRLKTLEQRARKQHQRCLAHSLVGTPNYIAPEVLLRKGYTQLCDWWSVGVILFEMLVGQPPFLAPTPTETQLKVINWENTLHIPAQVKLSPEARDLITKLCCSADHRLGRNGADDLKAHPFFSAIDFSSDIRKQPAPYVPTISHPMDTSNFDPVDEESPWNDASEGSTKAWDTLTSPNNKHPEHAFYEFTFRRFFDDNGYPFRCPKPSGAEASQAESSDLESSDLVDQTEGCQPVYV
# Method in brief: (§1)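 Jurkat cells were exposed alive to nine compound concentrations (top 30 μM, 1:4 steps) or vehicle for 60 min at 37 °C and then lysed. In a second format, nine concentrations (top 30 μM, 1:5 steps) were incubated for 60 min at 4 °C with Jurkat lysate or with a 1:1:1:1 lysate mix of HEK293, K-562, HepG2 and placenta. Proteins captured on Kinobeads were digested and quantified by TMT10 LC-MS/MS. pIC50 values were derived from logistic dose-response fits (R drc package) of fold changes relative to vehicle, in biological duplicates.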
# MARK4 = target: T2, MARK4 (UniProt Q96L34)
# T2 sequence (whole entry): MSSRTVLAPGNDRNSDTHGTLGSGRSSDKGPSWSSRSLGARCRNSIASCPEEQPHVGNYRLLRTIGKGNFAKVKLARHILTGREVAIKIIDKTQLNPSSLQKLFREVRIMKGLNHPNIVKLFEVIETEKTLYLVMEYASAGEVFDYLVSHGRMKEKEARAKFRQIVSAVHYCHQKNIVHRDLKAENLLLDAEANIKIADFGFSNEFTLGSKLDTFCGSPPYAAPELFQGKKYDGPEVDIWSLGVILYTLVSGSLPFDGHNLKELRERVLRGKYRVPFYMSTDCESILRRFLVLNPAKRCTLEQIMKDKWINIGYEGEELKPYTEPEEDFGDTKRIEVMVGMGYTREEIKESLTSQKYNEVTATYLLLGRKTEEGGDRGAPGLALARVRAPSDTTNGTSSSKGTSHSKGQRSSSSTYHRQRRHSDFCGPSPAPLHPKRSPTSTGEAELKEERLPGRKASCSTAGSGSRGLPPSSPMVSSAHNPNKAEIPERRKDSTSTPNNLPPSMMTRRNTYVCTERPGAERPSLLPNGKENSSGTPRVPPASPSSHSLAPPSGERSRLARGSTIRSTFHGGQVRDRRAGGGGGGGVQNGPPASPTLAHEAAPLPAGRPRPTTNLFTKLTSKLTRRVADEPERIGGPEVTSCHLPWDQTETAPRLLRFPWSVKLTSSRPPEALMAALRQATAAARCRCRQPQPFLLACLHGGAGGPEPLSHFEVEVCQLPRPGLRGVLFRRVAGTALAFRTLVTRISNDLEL
# Method in brief: as §1
# MET = MET (UniProt P08581); details: cell material: Lysate mix
# MET, sequence (P08581 whole entry): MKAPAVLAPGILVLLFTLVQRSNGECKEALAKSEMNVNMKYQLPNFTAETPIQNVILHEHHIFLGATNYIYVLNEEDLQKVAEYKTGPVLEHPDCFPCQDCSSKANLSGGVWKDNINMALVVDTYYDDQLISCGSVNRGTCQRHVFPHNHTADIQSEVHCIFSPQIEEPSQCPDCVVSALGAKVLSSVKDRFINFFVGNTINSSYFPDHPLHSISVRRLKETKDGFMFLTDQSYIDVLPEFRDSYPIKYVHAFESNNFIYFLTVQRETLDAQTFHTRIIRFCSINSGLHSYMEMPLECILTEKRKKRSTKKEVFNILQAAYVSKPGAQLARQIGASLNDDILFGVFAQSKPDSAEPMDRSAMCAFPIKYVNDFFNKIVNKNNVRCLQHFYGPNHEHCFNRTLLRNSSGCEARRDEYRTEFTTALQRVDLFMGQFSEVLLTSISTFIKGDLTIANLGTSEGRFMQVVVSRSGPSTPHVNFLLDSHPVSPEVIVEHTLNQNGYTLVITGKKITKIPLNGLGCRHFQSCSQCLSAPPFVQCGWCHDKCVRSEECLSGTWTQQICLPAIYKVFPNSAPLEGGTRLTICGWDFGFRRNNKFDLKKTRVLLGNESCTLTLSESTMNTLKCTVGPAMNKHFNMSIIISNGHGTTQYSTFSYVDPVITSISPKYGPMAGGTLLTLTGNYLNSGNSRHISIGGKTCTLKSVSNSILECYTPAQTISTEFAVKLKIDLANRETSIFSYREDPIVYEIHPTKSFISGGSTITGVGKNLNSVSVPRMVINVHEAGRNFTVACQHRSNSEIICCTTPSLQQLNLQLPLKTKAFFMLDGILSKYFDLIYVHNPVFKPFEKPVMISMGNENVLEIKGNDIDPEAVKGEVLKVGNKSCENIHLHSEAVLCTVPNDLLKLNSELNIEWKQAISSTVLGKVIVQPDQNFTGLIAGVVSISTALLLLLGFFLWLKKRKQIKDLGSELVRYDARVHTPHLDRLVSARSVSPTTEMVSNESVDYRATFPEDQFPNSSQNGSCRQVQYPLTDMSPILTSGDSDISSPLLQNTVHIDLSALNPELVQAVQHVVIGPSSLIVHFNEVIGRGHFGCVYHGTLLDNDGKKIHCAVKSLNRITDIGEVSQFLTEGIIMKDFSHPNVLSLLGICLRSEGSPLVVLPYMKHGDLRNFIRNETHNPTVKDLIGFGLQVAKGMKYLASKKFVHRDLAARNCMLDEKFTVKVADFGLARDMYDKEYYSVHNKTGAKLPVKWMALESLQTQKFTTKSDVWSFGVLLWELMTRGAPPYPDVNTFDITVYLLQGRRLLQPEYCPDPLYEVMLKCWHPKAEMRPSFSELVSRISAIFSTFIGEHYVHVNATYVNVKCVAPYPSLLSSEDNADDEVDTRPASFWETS
# Method in brief: as §1
# RIPK2 = RIPK2 (UniProt O43353); details: cell material: Lysate mix
# Method in brief: as §1
# SGK2 = target: T3, SGK2 (UniProt Q9HBY8); details: cell material: Lysate mix
# T3 sequence (whole entry): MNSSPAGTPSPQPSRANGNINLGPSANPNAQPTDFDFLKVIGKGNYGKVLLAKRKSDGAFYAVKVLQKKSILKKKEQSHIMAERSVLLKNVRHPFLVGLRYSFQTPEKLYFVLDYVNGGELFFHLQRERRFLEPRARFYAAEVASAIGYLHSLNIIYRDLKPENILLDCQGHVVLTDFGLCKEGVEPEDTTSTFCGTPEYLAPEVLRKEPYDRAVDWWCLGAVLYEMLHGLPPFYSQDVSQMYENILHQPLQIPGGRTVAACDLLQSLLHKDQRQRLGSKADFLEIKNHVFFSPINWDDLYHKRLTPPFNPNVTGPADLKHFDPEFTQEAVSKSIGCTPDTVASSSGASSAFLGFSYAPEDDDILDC
# Method in brief: as §1
# UniProt O75460 = target: UniProt O75460
# UniProt O75460, sequence (O75460 whole entry, looked up): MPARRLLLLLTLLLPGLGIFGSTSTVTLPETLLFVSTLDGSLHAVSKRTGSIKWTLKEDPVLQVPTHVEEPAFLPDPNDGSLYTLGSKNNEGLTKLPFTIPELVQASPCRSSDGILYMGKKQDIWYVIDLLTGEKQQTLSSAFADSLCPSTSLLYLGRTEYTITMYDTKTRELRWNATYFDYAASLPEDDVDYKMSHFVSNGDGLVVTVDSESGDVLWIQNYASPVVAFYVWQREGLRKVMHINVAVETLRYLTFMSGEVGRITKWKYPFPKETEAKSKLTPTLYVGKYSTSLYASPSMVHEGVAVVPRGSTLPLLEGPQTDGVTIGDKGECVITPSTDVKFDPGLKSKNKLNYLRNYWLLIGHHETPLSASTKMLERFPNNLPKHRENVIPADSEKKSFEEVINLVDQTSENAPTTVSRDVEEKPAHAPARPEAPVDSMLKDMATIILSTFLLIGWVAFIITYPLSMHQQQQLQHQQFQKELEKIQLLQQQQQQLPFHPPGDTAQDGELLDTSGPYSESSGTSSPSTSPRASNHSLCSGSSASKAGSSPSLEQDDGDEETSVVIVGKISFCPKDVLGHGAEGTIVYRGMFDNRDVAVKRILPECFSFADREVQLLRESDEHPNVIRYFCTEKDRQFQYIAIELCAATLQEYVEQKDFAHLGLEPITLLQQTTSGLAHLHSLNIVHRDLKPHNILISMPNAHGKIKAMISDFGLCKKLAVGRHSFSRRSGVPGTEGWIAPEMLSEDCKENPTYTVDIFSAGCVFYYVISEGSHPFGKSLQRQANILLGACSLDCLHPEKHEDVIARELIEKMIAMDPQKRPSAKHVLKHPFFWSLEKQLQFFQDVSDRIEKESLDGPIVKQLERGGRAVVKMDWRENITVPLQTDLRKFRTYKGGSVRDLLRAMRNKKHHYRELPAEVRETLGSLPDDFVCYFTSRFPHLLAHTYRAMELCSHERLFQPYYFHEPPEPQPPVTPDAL
# Method in brief: as §1
# UniProt P45984 = target: UniProt P45984
# UniProt P45984, sequence (P45984 whole entry, looked up): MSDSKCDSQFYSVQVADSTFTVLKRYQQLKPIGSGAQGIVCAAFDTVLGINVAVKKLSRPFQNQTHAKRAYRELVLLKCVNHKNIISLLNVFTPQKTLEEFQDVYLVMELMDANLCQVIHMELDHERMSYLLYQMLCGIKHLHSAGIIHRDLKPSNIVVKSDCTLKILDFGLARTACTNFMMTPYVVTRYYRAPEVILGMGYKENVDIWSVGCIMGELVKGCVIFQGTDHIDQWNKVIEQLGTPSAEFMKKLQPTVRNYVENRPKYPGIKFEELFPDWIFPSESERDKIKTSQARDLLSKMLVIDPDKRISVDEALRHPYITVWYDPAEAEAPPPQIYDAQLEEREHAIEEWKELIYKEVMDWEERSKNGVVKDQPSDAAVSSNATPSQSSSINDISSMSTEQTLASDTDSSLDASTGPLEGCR
# Method in brief: as §1
# UniProt Q16512 = target: UniProt Q16512
# UniProt Q16512, sequence (Q16512 whole entry, looked up): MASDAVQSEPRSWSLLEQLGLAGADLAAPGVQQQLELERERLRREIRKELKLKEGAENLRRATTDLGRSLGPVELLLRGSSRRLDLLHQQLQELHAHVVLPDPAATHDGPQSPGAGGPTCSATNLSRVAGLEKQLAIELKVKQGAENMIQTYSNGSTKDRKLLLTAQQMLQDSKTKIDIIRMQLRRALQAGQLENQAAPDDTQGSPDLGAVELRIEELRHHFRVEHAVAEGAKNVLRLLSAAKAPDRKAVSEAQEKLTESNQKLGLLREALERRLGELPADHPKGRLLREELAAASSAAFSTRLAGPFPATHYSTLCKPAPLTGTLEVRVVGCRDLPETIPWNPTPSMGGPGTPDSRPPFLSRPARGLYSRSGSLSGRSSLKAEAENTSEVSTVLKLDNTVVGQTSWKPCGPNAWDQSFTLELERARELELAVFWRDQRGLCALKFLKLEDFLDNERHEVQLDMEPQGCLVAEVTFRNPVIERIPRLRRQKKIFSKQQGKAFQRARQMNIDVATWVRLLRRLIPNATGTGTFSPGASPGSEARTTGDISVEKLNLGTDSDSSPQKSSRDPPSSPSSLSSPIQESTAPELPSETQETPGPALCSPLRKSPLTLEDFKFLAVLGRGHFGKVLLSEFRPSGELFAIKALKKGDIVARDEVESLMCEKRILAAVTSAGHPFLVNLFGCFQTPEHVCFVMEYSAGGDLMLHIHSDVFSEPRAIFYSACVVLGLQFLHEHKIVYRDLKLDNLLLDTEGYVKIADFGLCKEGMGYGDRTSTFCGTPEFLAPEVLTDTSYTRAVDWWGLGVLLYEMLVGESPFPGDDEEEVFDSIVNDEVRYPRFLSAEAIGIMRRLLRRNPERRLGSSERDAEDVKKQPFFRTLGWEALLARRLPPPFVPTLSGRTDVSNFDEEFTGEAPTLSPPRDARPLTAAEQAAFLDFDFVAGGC
# Method in brief: as §1
# AXL = AXL (UniProt P30530); details: cell material: Lysate mix
# AXL, sequence (P30530 whole entry): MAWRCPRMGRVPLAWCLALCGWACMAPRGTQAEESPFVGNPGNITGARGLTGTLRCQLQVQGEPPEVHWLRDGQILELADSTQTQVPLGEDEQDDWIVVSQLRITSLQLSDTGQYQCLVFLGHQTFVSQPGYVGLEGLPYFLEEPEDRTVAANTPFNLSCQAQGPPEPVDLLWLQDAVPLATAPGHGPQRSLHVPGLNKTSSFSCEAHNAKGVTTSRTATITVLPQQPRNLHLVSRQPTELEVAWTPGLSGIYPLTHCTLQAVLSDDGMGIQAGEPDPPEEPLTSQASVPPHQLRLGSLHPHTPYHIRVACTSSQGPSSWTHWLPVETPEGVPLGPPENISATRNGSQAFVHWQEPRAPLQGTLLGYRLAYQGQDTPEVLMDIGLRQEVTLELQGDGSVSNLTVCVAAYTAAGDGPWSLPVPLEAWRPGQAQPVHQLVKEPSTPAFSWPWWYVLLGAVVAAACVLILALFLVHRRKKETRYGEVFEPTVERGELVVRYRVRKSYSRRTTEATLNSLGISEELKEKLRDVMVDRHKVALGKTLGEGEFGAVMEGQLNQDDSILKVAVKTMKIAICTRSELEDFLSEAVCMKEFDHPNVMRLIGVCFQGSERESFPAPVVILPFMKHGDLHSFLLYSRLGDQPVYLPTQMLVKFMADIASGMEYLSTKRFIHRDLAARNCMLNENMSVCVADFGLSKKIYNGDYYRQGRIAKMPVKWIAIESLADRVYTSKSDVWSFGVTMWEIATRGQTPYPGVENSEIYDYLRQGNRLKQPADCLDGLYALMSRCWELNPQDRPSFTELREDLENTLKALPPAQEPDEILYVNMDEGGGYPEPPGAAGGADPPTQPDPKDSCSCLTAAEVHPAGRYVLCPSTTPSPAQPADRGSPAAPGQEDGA
# Method in brief: as §1
# UniProt Q9Y6M4 = details: cell material: Lysate mix
# UniProt Q9Y6M4, sequence (Q9Y6M4 whole entry, looked up): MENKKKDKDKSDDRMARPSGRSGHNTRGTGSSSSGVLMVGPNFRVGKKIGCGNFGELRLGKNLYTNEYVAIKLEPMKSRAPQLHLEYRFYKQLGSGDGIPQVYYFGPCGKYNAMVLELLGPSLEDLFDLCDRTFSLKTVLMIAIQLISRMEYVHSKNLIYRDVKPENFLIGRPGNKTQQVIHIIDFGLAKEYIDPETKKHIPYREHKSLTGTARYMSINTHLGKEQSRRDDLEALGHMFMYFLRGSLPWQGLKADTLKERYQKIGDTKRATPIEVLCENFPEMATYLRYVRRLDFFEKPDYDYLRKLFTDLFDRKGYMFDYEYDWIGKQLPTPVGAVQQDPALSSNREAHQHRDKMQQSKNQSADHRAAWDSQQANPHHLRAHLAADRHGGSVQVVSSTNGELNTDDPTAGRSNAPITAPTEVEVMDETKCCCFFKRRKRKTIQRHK
# Method in brief: as §1
SMILES,pIC50 (LATS2; cell material: Lysate mix),pIC50 (MARK4; cell material: Lysate mix),pIC50 (MET),pIC50 (RIPK2),pIC50 (SGK2),pIC50 (UniProt O75460; cell material: Lysate mix),pIC50 (UniProt P45984; cell material: Lysate mix),pIC50 (UniProt Q16512; cell material: Lysate mix),pIC50 (AXL),pIC50 (UniProt Q9Y6M4),pIC50 (LATS2; cell material: Jurkat lysate),pIC50 (LATS2; cell material: Jurkat cells),pIC50 (MARK4; cell material: Jurkat cells),pIC50 (MARK4; cell material: Jurkat lysate),pIC50 (UniProt O75460; cell material: Jurkat cells),pIC50 (UniProt O75460; cell material: Jurkat lysate),pIC50 (UniProt P45984; cell material: Jurkat cells),pIC50 (UniProt P45984; cell material: Jurkat lysate),pIC50 (UniProt Q16512; cell material: Jurkat cells),pIC50 (UniProt Q16512; cell material: Jurkat lysate)
C#CCNC(=O)c1cc(Nc2cc(C)[nH]n2)nc(N2CCN(Cc3ccc(S(=O)(=O)F)cc3)CC2)n1,4.77,< 4.52,< 4.52,< 4.52,5.8,< 4.52,5.34,< 4.52,–,–,–,–,–,–,–,–,–,–,–,–
C#CCNC(=O)c1cc(Nc2cc(C3CC3)[nH]n2)nc(N2CCN(Cc3ccc(S(=O)(=O)F)cc3)CC2)n1,5.84,4.81,–,< 4.52,6.52,< 4.52,5.72,< 4.52,< 4.52,< 4.52,–,5.82,5.98,< 4.52,< 4.52,< 4.52,5.92,5.22,5.36,< 4.52
CCNC(=O)c1cc(Nc2cc(C)[nH]n2)nc(N2CCN(Cc3ccc(S(=O)(=O)F)cc3)CC2)n1,–,< 4.52,< 4.52,< 4.52,5.46,< 4.52,5.2,< 4.52,4.74,< 4.52,–,–,–,–,–,–,–,–,–,–

# The next lines start with results.
pIC50 (LATS2; cell material: Lysate mix),pIC50 (MARK4; cell material: Lysate mix),pIC50 (MET),pIC50 (RIPK2),pIC50 (SGK2),pIC50 (UniProt O75460; cell material: Lysate mix),pIC50 (UniProt P45984; cell material: Lysate mix),pIC50 (UniProt Q16512; cell material: Lysate mix),pIC50 (AXL),pIC50 (UniProt Q9Y6M4),pIC50 (LATS2; cell material: Jurkat lysate),SMILES,pIC50 (LATS2; cell material: Jurkat cells),pIC50 (MARK4; cell material: Jurkat cells),pIC50 (MARK4; cell material: Jurkat lysate),pIC50 (UniProt O75460; cell material: Jurkat cells),pIC50 (UniProt O75460; cell material: Jurkat lysate),pIC50 (UniProt P45984; cell material: Jurkat cells),pIC50 (UniProt P45984; cell material: Jurkat lysate),pIC50 (UniProt Q16512; cell material: Jurkat cells),pIC50 (UniProt Q16512; cell material: Jurkat lysate)
< 4.52,< 4.52,< 4.52,< 4.52,–,< 4.52,–,< 4.52,4.72,< 4.52,< 4.52,O=C(NCCNC(=O)c1cc(Nc2cc(C3CC3)[nH]n2)nc(N2CCN(Cc3ccc(S(=O)(=O)F)cc3)CC2)n1)OC1CC/C=C/CCC1 (stereo unspecified),5.54,5.44,< 4.52,–,< 4.52,5.7,< 4.52,–,< 4.52
5.31,4.93,4.92,< 4.52,5.7,< 4.52,5.62,–,–,4.89,–,CCNC(=O)c1cc(Nc2cc(C3CC3)[nH]n2)nc(N2CCN(Cc3ccc(S(=O)(=O)F)cc3)CC2)n1,–,–,–,–,–,–,–,–,–
< 4.52,< 4.52,< 4.52,< 4.52,< 4.52,< 4.52,–,< 4.52,–,–,–,Cc1cc(Nc2cc(C(=O)NCCNC(=O)OC3CC/C=C/CCC3)nc(N3CCN(Cc4ccc(S(=O)(=O)F)cc4)CC3)n2)n[nH]1 (stereo unspecified),–,–,–,–,–,–,–,–,–
